Source: patent US20110262502A1, “PULMONARY DELIVERY OF 17-HYDROXYPROGESTERONE CAPROATE (17-HPC)” (Prairie Pharmaceuticals LLC, priority 2010, published 2011)

Tested on: PHA-induced IL-2 release in IL-2 and IL-4 treated (steroid resistant) PBMCs
Assay: IL-2/IL-4 induced steroid resistance model in PBMCs: dexamethasone inhibition of PHA-induced IL-2 release
Type: cell-based, human
Conditions: for PHA-induced IL-2 level: FIG. 5
Protocol: J Immunol 2009; 183; 164-171). […] Following PBMCs stimulation with mitogen phytohaemagglutinin (PHA), there is a strong correlation between cytokine secretion levels and steroid resistance as well as steroid sensitivity in vitro. Addition of IL-2, IL-4 and TNF-reduce steroid sensitivity.
PBMCs (2×10^6) were incubated with or without IL-2 (13 ng/ml) and IL-4 (6.5 ng/ml) for 48 hours in RPMI-1640 medium containing 10% FCS and 2 mM glutamine. […] IL-2 and IL-4 stimulated PBMCs were also plated at a concentration of 10^6 cells/ml in 96-well plates ready for PHA (15 μg/mL, 24 hours) stimulation of cytokine release and detection by ELISA.
IL-2/4 induced steroid resistance in PBMCs, a well-recognized study model, was used to evaluate potential modifiers of steroid resistance and sensitivity. PBMCs from healthy smokers were collected. Corticosteroid insensitivity or resistance was induced by adding IL-2 and IL-4 in peripheral blood mononuclear cells (PBMCs) from healthy male smokers (n=˜11). […] IL-2 levels were quantified using ELISA.
J Immunol 2009; 183; 164-171).
IL-2 levels were quantified using ELISA.

[1] = FIG. 4, high dose Dexamethasone 10^−6 M

CCCCCC(=O)O[C@]1(C(C)=O)CC[C@H]2[C@@H]3CCC4=CC(=O)CC[C@]4(C)[C@H]3CC[C@@]21C [17HPC, 17α-HYDROXYPROGESTERONE CAPROATE]
highest improvement rate in Imax [1]: 18%
improvement rate in Imax at all dose levels [1]: 16-18%
PHA-induced IL-2 level (Dexamethasone 10^−10 M + 17HPC 10^−5M): 1595 pg/mL
PHA-induced IL-2 level (Dexamethasone 10^−10 M + 17HPC 10^−7M): 1805 pg/mL
PHA-induced IL-2 level (Dexamethasone 10^−10 M + 17HPC 10^−10 M): 2119 pg/mL
subjects with more than 10% improvement in % maximal Dexamethasone inhibition (FIG. 6, Dexamethasone 10^−6 M): Ten out of 11
